# Reference: ChEMBL document CHEMBL1773001, “Broad-spectrum antiviral activity including human immunodeficiency and hepatitis C viruses mediated by a novel retinoid thiosemicarbazone derivative” (Eur J Med Chem, 2011)
# Active and inactive are the calls of the source. No cut-off for these calls is given here.
# Assays:
# [1] = Cytotoxicity against human HFF cells infected with Varicella-zoster virus Ellen assessed as viable cells by neutral red uptake assay; type: cell-based
# Vaccinia virus = experiment: Antiviral activity against Vaccinia virus Copenhagen infected in human HFF cells assessed as reduction in viral-induced cytopathic effect by neutral red uptake assay; type: functional, organism-based, Orthopoxvirus vaccinia
# [2] = Selectivity index, ratio of CC50 for human Huh7ET cells infected with Hepatitis C virus to EC50 for Hepatitis C virus by luciferase reporter gene assay; type: toxicity, cell-based, Huh-7; settings: read-out: Selectivity Index
# Human alphaherpesvirus 3 [3] = experiment: Antiviral activity against Varicella-zoster virus Ellen infected in 1 hr pretreated human HFF cells assessed as reduction in viral-induced cytopathic effect by neutral red uptake assay; type: functional, organism-based; settings: Human alphaherpesvirus 3, Ellen
# [4] = Selectivity index, ratio of CC50 for human HFF cells infected with Cowpox virus (Brighton Red) to EC50 for Vaccinia virus Copenhagen; type: toxicity, cell-based; settings: read-out: Selectivity Index
# [5] = Antiviral activity against Cowpox virus (Brighton Red) infected in human HFF cells assessed as reduction in viral-induced cytopathic effect by neutral red uptake assay; type: functional, cell-based
# Hepatitis C virus [6] = experiment: Antiviral activity against Hepatitis C virus infected in human Huh7ET cells assessed as inhibition of viral replication by luciferase reporter gene assay; type: functional, organism-based, Hepacivirus hominis; settings: Huh-7
# [7] = Selectivity index, ratio of CC50 for human HFF cells infected with Cowpox virus (Brighton Red) to EC50 for Cowpox virus (Brighton Red); type: toxicity, cell-based; settings: read-out: Selectivity Index
# [8] = Selectivity index, ratio of CC50 for human HFF cells infected with […] to EC50 for Varicella-zoster virus Ellen; type: toxicity, cell-based; settings: read-out: Selectivity Index
# [9] = Cytotoxicity against human HFF cells infected with Cowpox virus (Brighton Red) assessed as viable cells by neutral red uptake assay; type: cell-based
# Human betaherpesvirus 5 [10] = experiment: Antiviral activity against Human cytomegalovirus (strain AD169) infected in 1 hr pretreated human HFF cells assessed as reduction in viral-induced cytopathic effect by neutral red uptake assay; type: functional, organism-based; settings: Human betaherpesvirus 5, AD169, HFF
# [11] = Cytotoxicity against human HFF cells infected with Vaccinia virus Copenhagen assessed as viable cells by neutral red uptake assay; type: cell-based
# Hepatitis C virus [12] = experiment: Antiviral activity against Hepatitis C virus infected in human Huh7ET cells assessed as viral RNA level by RT-PCR; type: functional, organism-based; settings: Huh-7; for Activity: Hepacivirus hominis
# [13] = Cytotoxicity against human HFF cells infected with Human cytomegalovirus AD169 assessed as viable cells by neutral red uptake assay; type: cell-based
# [14] = Selectivity index, ratio of CC90 for human Huh7ET cells infected with Hepatitis C virus to EC90 for Hepatitis C virus by luciferase reporter gene assay; type: toxicity, cell-based, Huh-7; settings: read-out: Selectivity Index
# [15] = Selectivity index, ratio of CC50 for human Huh7ET cells infected with Hepatitis C virus to EC50 for Hepatitis C virus by RT-PCR; type: toxicity, cell-based, Huh-7; settings: read-out: Selectivity Index
# [16] = Cytotoxicity against human Huh7ET cells infected with Hepatitis C virus assessed as ribosomal RNA level by RT-PCR; type: cell-based, Huh-7
# Hepatitis C virus [17] = experiment: Antiviral activity against Hepatitis C virus infected in human Huh7ET cells assessed as inhibition of viral replication at 20 uM by luciferase reporter gene assay; type: functional, Hepacivirus hominis; settings: Huh-7
# [18] = Selectivity index, ratio of CC50 for human HFF cells infected with […] to EC50 for Human cytomegalovirus AD169; type: toxicity, cell-based; settings: read-out: Selectivity Index
# Human alphaherpesvirus 3 [19] = experiment: Antiviral activity against Varicella-zoster virus Ellen infected in human HFF cells assessed as inhibition of viral replication after 1 hr by plaque reduction assay; type: functional, organism-based; settings: Human alphaherpesvirus 3, Ellen
# [20] = Selectivity index, ratio of CC50 for human HFF cells infected with […] to EC50 for Human cytomegalovirus AD169 after 1 hr by plaque reduction assay; type: toxicity, cell-based; settings: read-out: Selectivity Index
# Human betaherpesvirus 5 [21] = experiment: Antiviral activity against Human cytomegalovirus (strain AD169) infected in human HFF cells assessed inhibition of viral replication after 1 hr by plaque reduction assay; type: functional, organism-based; settings: Human betaherpesvirus 5, AD169, HFF
# [22] = Cytotoxicity against human PBMC infected with Human immunodeficiency virus 1 LAV1 by MTS assay; type: cell-based
# [23] = Cytotoxicity against human HFF cells infected with Human cytomegalovirus AD169 assessed as viable cells after 1 hr by plaque reduction assay; type: cell-based
# [24] = Selectivity index, ratio of CC50 for human PBMC infected with Human immunodeficiency virus 1 LAV1 to EC50 for Human immunodeficiency virus 1 LAV1
# [25] = test system: Human immunodeficiency virus 1; experiment: Antiviral activity against Human immunodeficiency virus 1 LAV1 assessed as reduction in RT activity by [3H]-dTTP incorporation assay; type: functional, organism-based
# [26] = Selectivity index, ratio of CC90 for human Huh7ET cells infected with Hepatitis C virus to EC90 for Hepatitis C virus by RT-PCR; type: toxicity, cell-based, Huh-7; settings: read-out: Selectivity Index
# [27] = Cytotoxicity against human HFF cells infected with Varicella-zoster virus Ellen assessed as viable cells after 1 hr by plaque reduction assay; type: cell-based
# [28] = Selectivity index, ratio of CC50 for human HFF cells infected with […] to EC50 for Varicella-zoster virus Ellen after 1 hr by plaque reduction assay; type: toxicity, cell-based; settings: read-out: Selectivity Index
# [29] = Orthopoxvirus vaccinia, Copenhagen, HFF
# [30] = Orthopoxvirus vaccinia, Copenhagen, HFF, read-out: EC50
SMILES,CC50 [1],EC90 (Vaccinia virus; [29]),EC50 (Vaccinia virus; [30]),selectivity ratio [2],EC50 (Human alphaherpesvirus 3 [3]),selectivity ratio [4],EC50 [5],EC90 [5],EC50 (Hepatitis C virus [6]),EC90 (Hepatitis C virus [6]),selectivity ratio [7],CC50 [9],EC50 (Human betaherpesvirus 5 [10]),EC90 (Human betaherpesvirus 5 [10]),CC50 [11],CC50 [13],selectivity ratio [14],selectivity ratio [15],CC50 [16],CC90 [16],further results
CN(C)c1ccc(/C=N/N=c2\[nH]c(-c3ccc(F)cc3)cs2)cc1,> 300 µM,84.9 µM,73.6 µM,> 3.2,16.6 µM,> 4.1,36 µM,> 300 µM,6.32 µM,> 20 µM,> 8.3,> 300 µM,> 300 µM,> 300 µM,> 300 µM,> 300 µM,–,–,–,–,EC90 (Human alphaherpesvirus 3 [3]): 26.5 µM; selectivity ratio [8]: > 18.1; Activity (Hepatitis C virus [12]): inactive
NC(=S)N/N=C/c1ccc(Br)cc1F,> 300 µM,239 µM,110 µM,> 71.4,> 300 µM,> 2.7,115 µM,294 µM,0.28 µM,5.93 µM,> 2.6,> 300 µM,> 300 µM,> 300 µM,> 300 µM,> 300 µM,> 3.4,48.8,≥ 12.2 µM,> 20 µM,EC90 (Human alphaherpesvirus 3 [3]): > 300 µM; EC50 (Hepatitis C virus [12]): 0.25 µM; EC90 (Hepatitis C virus [12]): > 20 µM
Nc1nc2c(ncn2COC(CO)CO)c(=O)[nH]1 [GANCICLOVIR],–,–,–,–,–,–,–,–,–,–,–,–,0.04 µM,–,–,–,–,–,–,–,EC90 (Vaccinia virus; Orthopoxvirus vaccinia): inactive; EC50 (Vaccinia virus; hff): Not Active
CCCCCCCCCCCCCCS/C(N)=N/N=C/c1ccc(N(C)C)cc1,–,–,–,–,–,–,–,–,–,–,–,–,–,–,–,–,–,–,–,–,inhibition at 20 µM (Hepatitis C virus [17]): 31.4%; Activity (Hepatitis C virus [12]): inactive
Nc1nc(O)c2ncn(COC(CO)CO)c2n1 [GANCICLOVIR],–,–,–,–,–,–,–,–,–,–,–,–,–,–,–,> 100 µM,–,–,–,–,selectivity ratio [18]: > 2500
CC1=C(/C=C/C(C)=C/C=C/C(C)=C/C=N/[N-]C(=S)[N-]C(=S)[N-]/N=C/C=C(C)/C=C/C=C(C)/C=C/C2=C(C)CCCC2(C)C)C(C)(C)CCC1.O.[Na+].[Na+].[Na+],–,> 2.4 µM,> 2.4 µM,15.2,–,> 4.9,> 2.4 µM,> 2.4 µM,0.85 µM,4 µM,< 4.9,11.8 µM,–,–,11.8 µM,–,> 5,31,11.2 µM,> 20 µM,EC50 (Human alphaherpesvirus 3 [19]): 4.7 µM; EC90 (Human alphaherpesvirus 3 [19]): 17 µM; selectivity ratio at 1 h [20]: 5.7; EC50 (Human betaherpesvirus 5 [21]): 2.4 µM; EC90 (Human betaherpesvirus 5 [21]): > 4 µM; CC50 [22]: 28.5 µM; CC50 at 1 h [23]: 13.6 µM; Selectivity Index [24]: 5.2; EC50 [25]: 1.4 µM; EC90 [25]: 6.5 µM; selectivity ratio [26]: > 10.2; CC50 at 1 h [27]: 33.3 µM; EC50 (Hepatitis C virus [12]): 0.36 µM; EC90 (Hepatitis C virus [12]): 1.97 µM; selectivity ratio at 1 h [28]: 7.1
NC(=S)N/N=C/c1ccc(OC(F)(F)F)cc1,–,> 300 µM,250 µM,111,–,> 1.2,54.3 µM,> 300 µM,0.08 µM,0.5 µM,> 5.5,> 300 µM,> 60 µM,> 60 µM,> 300 µM,290 µM,> 40,18,1.44 µM,≥ 5.08 µM,selectivity ratio [26]: 8.3; selectivity ratio [18]: < 4.8; EC50 (Hepatitis C virus [12]): 0.08 µM; EC90 (Hepatitis C virus [12]): 0.61 µM
Cc1cn([C@H]2C[C@H](N=[N+]=[N-])[C@@H](CO)O2)c(=O)[nH]c1=O [ZIDOVUDINE],–,–,–,–,–,–,–,–,–,–,–,–,–,–,–,–,–,–,–,–,CC50 [22]: > 100 µM; Selectivity Index [24]: >22727; EC50 [25]: 0.0044 µM; EC90 [25]: 0.031 µM
Nc1nc2c(ncn2COCCO)c(=O)[nH]1 [ACYCLOVIR],> 100 µM,–,–,–,1.1 µM,–,–,–,–,–,–,–,–,–,–,–,–,–,–,–,EC90 (Vaccinia virus; Orthopoxvirus vaccinia): inactive; EC50 (Vaccinia virus; hff): Not Active; selectivity ratio [8]: > 90.9
Nc1ccn(C[C@@H](CO)OCP(=O)(O)O)c(=O)n1 [CIDOFOVIR],–,20 µM,9.8 µM,–,–,> 32.3,6.7 µM,18.4 µM,–,–,> 47.3,> 317 µM,–,–,> 317 µM,–,–,–,–,–,–
